This note sets out measurements from patent US11702422B2, “Imidazopyridazines as modulators of IL-17” (Janssen Pharmaceutica NV, priority 2020, dated 2023).

Test [1] relates to IL-17A-induced G-CSF production in human normal keratinocyte (NHK). Kind of test: NHK Assay: IL-17A-induced G-CSF production in human normal keratinocytes. Conditions: 24 h, adult normal human keratinocytes, IL-17A 5 ng/mL, simple average if tested more than once. Type of test: cell-based. In outline:
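HTRF read-out of supernatant G-CSF, quantified from a standard curve, gave IC50 values. Adult keratinocytes, 3000-4000 cells/well, received human IL-17A (5 ng/mL final) pre-mixed 1 h at rt with compound, in 5% FBS and 0.2% DMSO, 24 h at 37° C.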

For test [2], the target named is IL-17A(FLAG-Tagged): IL-17RA(His-Tagged) (Homo sapiens, UniProt Q16552, K93Q). The test is described as follows: IL-17A(FLAG-Tagged): IL-17RA(His-Tagged) Binding Disruption Eu-HTRF Assay. Conditions: IL-17A/IL-17RA binding disruption, simple average if tested more than once. In outline:
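IC50 comes from a one-site competition fit of the HTRF 665/620 nm ratio. Compound dilutions (2-fold, 22 points) were held 1 h rt with FLAG-tagged IL-17A dimer, then His-tagged IL-17RA plus Eu-cryptate anti-FLAG and D2 anti-His antibodies were added for 2 h rt.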

UniProt Q16552, sequence (Q16552 with tags, fused parts or gaps K93Q): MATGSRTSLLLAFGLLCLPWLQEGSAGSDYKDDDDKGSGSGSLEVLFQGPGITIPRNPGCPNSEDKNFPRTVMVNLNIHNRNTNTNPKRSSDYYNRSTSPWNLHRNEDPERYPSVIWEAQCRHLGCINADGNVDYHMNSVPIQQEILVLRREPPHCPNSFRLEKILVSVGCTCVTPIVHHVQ

Consider `CC(C)n1nccc1C(=O)N[C@H](c1cn2ncc([C@H](NC(=O)CCC3CC3(F)F)C3CC3)cc2n1)C1CCC(F)(F)CC1` (single isomer, unassigned) [Example 270, N—((S)-(7-((R)-Cyclopropyl(3-((R*)-2,2-difluorocyclopropyl)propanamido)methyl)imidazo[1,2-b]pyridazin-2-yl)(4,4-difluorocyclohexyl)methyl)-1-isopropyl-1H-pyrazole-5-carboxamide], for which the IC50 in test [1] (Homo sapiens, Keratinocyte) is 38 nM; in test [2], 150 nM.

In the case of `CC(C)n1nccc1C(=O)N[C@H](c1cn2ncc([C@H](NC(=O)CCC3CC3(F)F)C3CC3)cc2n1)C1CCC(F)(F)CC1` (single isomer, unassigned) [Example 271, N—((S)-(7-((R)-Cyclopropyl(3-((S*)-2,2-difluorocyclopropyl)propanamido)methyl)imidazo[1,2-b]pyridazin-2-yl)(4,4-difluorocyclohexyl)methyl)-1-isopropyl-1H-pyrazole-5-carboxamide], the IC50 in test [1] is 67 nM; in test [2] it was 140 nM.

As for `CC(CC(=O)N[C@@H](c1cnn2cc([C@@H](NC(=O)c3conc3OCC(F)F)C3CCC(F)(F)CC3)nc2c1)C1CC1)C(F)(F)F` (single isomer, unassigned) [Example 298, N—((S)-(7-((R)-Cyclopropyl((R*)-4,4,4-trifluoro-3-methylbutanamido)methyl)imidazo[1,2-b]pyridazin-2-yl)(4,4-difluorocyclohexyl)methyl)-3-(2,2-difluoroethoxy)isoxazole-4-carboxamide], the 50% inhibitory concentration (IC50) is 610 nM in test [1] (Homo sapiens, Keratinocyte) and 250 nM in test [2].

For `CC(CC(=O)N[C@@H](c1cnn2cc([C@@H](NC(=O)c3conc3OCC(F)F)C3CCC(F)(F)CC3)nc2c1)C1CC1)C(F)(F)F` (single isomer, unassigned) [Example 299, N—((S)-(7-((R)-Cyclopropyl((S*)-4,4,4-trifluoro-3-methylbutanamido)methyl)imidazo[1,2-b]pyridazin-2-yl)(4,4-difluorocyclohexyl)methyl)-3-(2,2-difluoroethoxy)isoxazole-4-carboxamide], the IC50 was 840 nM in test [1] and 300 nM in test [2].

For `CC(CC(=O)N[C@@H](c1cnn2cc([C@@H](NC(=O)c3nonc3C3CC3)C3CCC(F)(F)CC3)nc2c1)C1CC1)C(F)(F)F` (single isomer, unassigned) [Example 300, 4-Cyclopropyl-N—((S)-(7-((R)-cyclopropyl((R*)-4,4,4-trifluoro-3-methylbutanamido)methyl)imidazo[1,2-b]pyridazin-2-yl)(4,4-difluorocyclohexyl)methyl)-1,2,5-oxadiazole-3-carboxamide], the concentration for half-maximal inhibition (IC50) was 320 nM in test [1] and 110 nM in test [2].

On to `CC(CC(=O)N[C@@H](c1cnn2cc([C@@H](NC(=O)c3nonc3C3CC3)C3CCC(F)(F)CC3)nc2c1)C1CC1)C(F)(F)F` (single isomer, unassigned) [Example 301, 4-Cyclopropyl-N—((S)-(7-((R)-cyclopropyl((S*)-4,4,4-trifluoro-3-methylbutanamido)methyl)imidazo[1,2-b]pyridazin-2-yl)(4,4-difluorocyclohexyl)methyl)-1,2,5-oxadiazole-3-carboxamide], for which the half-inhibitory concentration (IC50) in test [1] came to 56 nM; in test [2], 53 nM.

`CC(C)n1nccc1C(=O)N[C@H](c1cn2ncc([C@H](NC(=O)CO[C@@H](C)C(F)(F)F)C3CC3)cc2n1)C1CCC(F)(F)CC1` (single isomer, unassigned) [Example 310]: the concentration for half-maximal inhibition (IC50) in test [1] (Homo sapiens, Keratinocyte) is 220 nM; in test [2], 170 nM.

Turning to `CC(C)n1nccc1C(=O)N[C@H](c1cn2ncc([C@H](NC(=O)CO[C@H](C)C(F)(F)F)C3CC3)cc2n1)C1CCC(F)(F)CC1` (single isomer, unassigned) [Example 311], the IC50 in test [1] (Homo sapiens, Keratinocyte) amounted to 330 nM; in test [2] it was 210 nM.
